Measurements published in patent US9040528B2, “Chemical compounds 542” (AstraZeneca AB, priority 2008, dated 2015).

These molecules were tested against Escherichia coli DNA gyrase A/B tetramer (Escherichia coli (strain K12), UniProt P0AES4+P0AES6) (assay: DNA gyrase supercoiling activity fluorescence polarisation assay). Conditions: not given.
Assay type: biochemical
Method in brief: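 Supercoiling reactions quenched with 40 nM 5′-BODIPY-FL triplex-forming oligonucleotide probe in pH 3.5 NaCl/sodium acetate buffer; after 60 min, fluorescence anisotropy read (ex 485/em 535 nm). IC50 by nonlinear regression, normalised to 0.8% DMSO (100% activity) and 5 μM ciprofloxacin (0% activity).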

Question: For `C[C@@H]1CN2c3c(cc4c(CO)noc4c3F)CC3(C(=O)NC(=O)NC3=O)[C@H]2[C@H](C)O1` (relative stereo) [Example 185, (2R,4S,4aS)-rel-11-fluoro-8-(hydroxymethyl)-2,4-dimethyl-2,4,4a,6-tetrahydro-1H,1′H-spiro[isoxazolo[4,5-g][1,4]oxazino[4,3-a]quinoline-5,5′-pyrimidine]-2′,4′,6′(3′H)-trione], which IC50 is on record?
Answer: The IC50 was 1.4 µM.

Question: Which IC50 does the source give for `Cc1noc2c(F)c3c(cc12)CC1(C(=O)NC(=O)NC1=O)[C@H]1[C@H](C)C[C@H](C)CN31` (relative stereo) [Example 77, (2S,4R,4aR)-rel-11-fluoro-2,4,8-trimethyl-1,2,3,4,4a,6-hexahydro-1′H-spiro[isoxazolo[4,5-g]pyrido[1,2-a]quinoline-5,5′-pyrimidine]-2′,4′,6′(3′H)-trione] here?
Answer: Its IC50 is 0.3 µM.

Same assay, conditions: 5 nM enzyme, relaxed plasmid, 0.3 mM ATP, ambient temperature; read-out: E. coli DNA gyrase supercoiling IC50

Question: How did the IC50 turn out when `C[C@@H]1CN2c3c(cc4c(C(=O)N5CCOCC5)noc4c3F)CC3(C(=O)NC(=O)NC3=O)[C@H]2[C@H](C)O1` (relative stereo) [Example 135, (2R,4S,4aS)-rel-11-fluoro-2,4-dimethyl-8-(morpholine-4-carbonyl)-2,4,4a,6-tetrahydro-1H,1′H-spiro[isoxazolo[4,5-g][1,4]oxazino[4,3-a]quinoline-5,5′-pyrimidine]-2′,4′,6′(3′H)-trione] was run?
Answer: Its IC50 is 3.3 µM.

Question: With `COCCNc1nccc(-c2noc3c(F)c4c(cc23)CC2(C(=O)NC(=O)NC2=O)[C@H]2[C@H](C)O[C@H](C)CN42)n1` [Example 170, (2R,4S,4aS)-11-fluoro-8-(2-(2-methoxyethylamino)pyrimidin-4-yl)-2,4-dimethyl-2,4,4a,6-tetrahydro-1H,1′H-spiro[isoxazolo[4,5-g][1,4]oxazino[4,3-a]quinoline-5,5′-pyrimidine]-2′,4′,6′(3′H)-trione] as the molecule, how does the IC50 read?
Answer: Its IC50 is 0.7 µM.

Question: `C[C@@H]1CN2c3c(cc4c(NCc5ccncc5)noc4c3F)CC3(C(=O)NC(=O)NC3=O)[C@H]2[C@H](C)O1` (relative stereo) [Example 16, (2R,4S,4aS)-rel-11-fluoro-2,4-dimethyl-8-[(pyridin-4-ylmethyl)amino]-1,2,4,4a-tetrahydro-2′H,6H-spiro[1,4-oxazino[4,3-a][1,2]oxazolo[4,5-g]quinoline-5,5′-pyrimidine]-2′,4′,6′(1′H,3′H)-trione] was tested. Which IC50 did it give?
Answer: The IC50 was 2.4 µM.

Question: For `C[C@@H]1CN2c3c(cc4c(-c5ccnc(NCCO)n5)noc4c3F)CC3(C(=O)NC(=O)NC3=O)[C@H]2[C@H](C)O1` [Example 171, (2R,4S,4aS)-11-fluoro-8-(2-(2-hydroxyethylamino)pyrimidin-4-yl)-2,4-dimethyl-2,4,4a,6-tetrahydro-1H,1′H-spiro[isoxazolo[4,5-g][1,4]oxazino[4,3-a]quinoline-5,5′-pyrimidine]-2′,4′,6′(3′H)-trione], which IC50 is on record?
Answer: The IC50 was 0.3 µM.

Question: `C[C@@H]1CN2c3c(cc4c(C(=O)N(C)C)noc4c3F)CC3(C(=O)NC(=O)NC3=O)[C@H]2[C@H](C)O1` (relative stereo) [Example 136, (2R,4S,4aS)-rel-11-fluoro-N,N,2,4-tetramethyl-2′,4′,6′-trioxo-2,2′,3′,4,4a,4′,6,6′-octahydro-1H,1′H-spiro[isoxazolo[4,5-g][1,4]oxazino[4,3-a]quinoline-5,5′-pyrimidine]-8-carboxamide] was tested. Which IC50 did it give?
Answer: Its IC50 is 2.8 µM.

Question: With `C[C@@H]1CN2c3c(cc4c(NCC5CCOCC5)noc4c3F)CC3(C(=O)NC(=O)NC3=O)[C@H]2[C@H](C)O1` (relative stereo) [Example 19, (2R,4S,4aS)-rel-11-fluoro-2,4-dimethyl-8-[(tetrahydro-2H-pyran-4-ylmethyl)amino]-1,2,4,4a-tetrahydro-2′H,6H-spiro[1,4-oxazino[4,3-a][1,2]oxazolo[4,5-]quinoline-5,5′-pyrimidine]-2′,4′,6′(1′H,3′H)-trione] as the molecule, how does the IC50 read?
Answer: The IC50 was 2.9 µM.

Question: Which IC50 does the source give for `C[C@@H]1CN2c3c(cc4c(-c5ccncc5)noc4c3F)CC3(C(=O)NC(=O)NC3=O)[C@H]2[C@H](C)O1` (relative stereo) [Example 82, (2R,4S,4aS)-rel-11-fluoro-2,4-dimethyl-8-(pyridin-4-yl)-2,4,4a,6-tetrahydro-1H,1′H-spiro[isoxazolo[4,5-g][1,4]oxazino[4,3-a]quinoline-5,5′-pyrimidine]-2′,4′,6′(3′H)-trione] here?
Answer: The IC50 was 0.2 µM.

Question: How did the IC50 turn out when `CNC(=O)c1noc2c(F)c3c(cc12)CC1(C(=O)NC(=O)NC1=O)[C@H]1[C@H](C)O[C@H](C)CN31` [Example 140(a), (2R,4S,4aS)-11-fluoro-N,2,4-trimethyl-2′,4′,6′-trioxo-2,2′,3′,4,4a,4′,6,6′-octahydro-1H,1′H-spiro[isoxazolo[4,5-g][1,4]oxazino[4,3-a]quinoline-5,5′-pyrimidine]-8-carboxamide] was run?
Answer: The IC50 was 0.9 µM.

Question: `C[C@@H]1CN2c3c(cc4c(C(=O)NC5CC5)noc4c3F)CC3(C(=O)NC(=O)NC3=O)[C@H]2[C@H](C)O1` (relative stereo) [Example 150, (2R,4S,4aS)-rel-N-cyclopropyl-11-fluoro-2,4-dimethyl-2′,4′,6′-trioxo-2,2′,3′,4,4a,4′,6,6′-octahydro-1H,1′H-spiro[isoxazolo[4,5-g][1,4]oxazino[4,3-a]quinoline-5,5′-pyrimidine]-8-carboxamide] was tested. Which IC50 did it give?
Answer: Its IC50 is 1.3 µM.

Question: `C[C@@H]1CN2c3c(nc4c(-c5ccccn5)noc4c3Cl)CC3(C(=O)NC(=O)NC3=O)[C@H]2[C@H](C)O1` (relative stereo) [Example 107, (2R,4S,4aS)-rel-11-chloro-2,4-dimethyl-8-(pyridyin-2-yl)-2,4,4a,6-tetrahydro-1H,1′H-spiro[isoxazolo[4,5-g][1,4]oxazino[4,3-a][1,5]naphthyridine-5,5′-pyrimidine]-2′,4′,6′(3′H)-trione] was tested. Which IC50 did it give?
Answer: Its IC50 is 1.4 µM.

Question: `CCNC(=O)c1noc2c(F)c3c(cc12)CC1(C(=O)NC(=O)NC1=O)[C@H]1[C@H](C)O[C@H](C)CN31` (racemic) [Example 138, (2R,4 S,4 aS)-rel-N-ethyl-11-fluoro-2,4-dimethyl-2′,4′,6′-trioxo-2,2′,3′,4,4a,4′,6,6′-octahydro-1H,1′H-spiro[isoxazolo[4,5-g][1,4]oxazino[4,3-a]quinoline-5,5′-pyrimidine]-8-carboxamide] was tested. Which IC50 did it give?
Answer: The IC50 was 1.7 µM.

Question: `C[C@@H]1CN2c3c(cc4c(-c5nccn5C)noc4c3Cl)CC3(C(=O)NC(=O)NC3=O)[C@H]2[C@H](C)O1` (relative stereo) [Example 89, (2R,4S,4aS)-rel-11-chloro-2,4-dimethyl-8-(1-methyl-1H-imidazol-2-yl)-1,2,4,4a-tetrahydro-2′H,6H-spiro[1,4-oxazino[4,3-a][1,2]oxazolo[4,5-g]quinoline-5,5′-pyrimidine]-2′,4′,6′(1′H,3′H)-trione] was tested. Which IC50 did it give?
Answer: Its IC50 is 1.3 µM.

Question: With `C[C@@H]1CN2c3c(cc4c(-c5cncn5C)noc4c3F)CC3(C(=O)NC(=O)NC3=O)[C@H]2[C@H](C)O1` (relative stereo) [Example 70, (2R,4S,4aS)-rel-11-fluoro-2,4-dimethyl-8-(1-methyl-1H-imidazol-5-yl)-1,2,4,4a-tetrahydro-2′H,6H-spiro[1,4-oxazino[4,3-a][1,2]oxazolo[4,5-g]quinoline-5,5′-pyrimidine]-2′,4′,6′(1′H,3′H)-trione] as the molecule, how does the IC50 read?
Answer: The IC50 was 0.5 µM.

Question: For `C[C@@H]1CN2c3c(cc4c(C(=O)NC5CCOCC5)noc4c3F)CC3(C(=O)NC(=O)NC3=O)[C@H]2[C@H](C)O1` (relative stereo) [Example 146, (2R,4S,4aS)-rel-11-fluoro-2,4-dimethyl-2′,4′,6′-trioxo-N-(tetrahydro-2H-pyran-4-yl)-2,2′,3′,4,4a,4′,6,6′-octahydro-1H,1′H-spiro[isoxazolo[4,5-g][1,4]oxazino[4,3-a]quinoline-5,5′-pyrimidine]-8-carboxamide], which IC50 is on record?
Answer: Its IC50 is 4.9 µM.

Question: Which IC50 does the source give for `C[C@@H]1CN2c3c(cc4c(-c5cncs5)noc4c3Cl)CC3(C(=O)NC(=O)NC3=O)[C@H]2[C@H](C)O1` (relative stereo) [Example 41, (2R,4S,4aS)-rel-11-chloro-2,4-dimethyl-8-(1,3-thiazol-5-yl)-1,2,4,4a-tetrahydro-2′H,6H-spiro[1,4-oxazino[4,3-a][1,2]oxazolo[4,5-g]quinoline-5,5′-pyrimidine]-2′,4′,6′(1′H,3′H)-trione] here?
Answer: Its IC50 is 0.8 µM.

Question: For `CCN(C)C(=O)c1noc2c(F)c3c(cc12)CC1(C(=O)NC(=O)NC1=O)[C@H]1[C@H](C)O[C@H](C)CN31` (relative stereo) [Example 139, (2R,4S,4aS)-rel-N-ethyl-11-fluoro-N,2,4-trimethyl-2′,4′,6′-trioxo-2,2′,3′,4,4a,4′,6,6′-octahydro-1H,1′H-spiro[isoxazolo[4,5-g][1,4]oxazino[4,3-a]quinoline-5,5′-pyrimidine]-8-carboxamide], which IC50 is on record?
Answer: Its IC50 is 7.6 µM.

Question: Which IC50 does the source give for `C[C@H]1CN2c3c(cc4c(C(F)(F)F)noc4c3F)CC3(C(=O)NC(=O)NC3=O)[C@@H]2[C@@H](C)O1` [Example 92(a), (2S,4R,4aR)-11-fluoro-2,4-dimethyl-8-(trifluoromethyl)-2,4,4a,6-tetrahydro-1H,1′H-spiro[isoxazolo[4,5-g][1,4]oxazino[4,3-a]quinoline-5,5′-pyrimidine]-2′,4′,6′(3′H)-trione] here?
Answer: Its IC50 is 65 µM.

Question: With `C[C@@H]1CN2c3c(cc4c(C(=O)NC5CN(C)C5)noc4c3F)CC3(C(=O)NC(=O)NC3=O)[C@H]2[C@H](C)O1` (relative stereo) [Example 159, (2R,4S,4aS)-rel-11-fluoro-2,4-dimethyl-N-(1-methylazetidin-3-yl)-2′,4′,6′-trioxo-2,2′,3′,4,4a,4′,6,6′-octahydro-1H,1′H-spiro[isoxazolo[4,5-g][1,4]oxazino[4,3-a]quinoline-5,5′-pyrimidine]-8-carboxamide] as the molecule, how does the IC50 read?
Answer: Its IC50 is 1.4 µM.

Question: For `C[C@@H]1CN2c3c(cc4c(-c5cn[nH]c5)noc4c3F)CC3(C(=O)NC(=O)NC3=O)[C@H]2[C@H](C)O1` (relative stereo) [Example 64, (2R,4S,4aS)-rel-11-fluoro-2,4-dimethyl-8-(1H-pyrazol-4-yl)-1,2,4,4a-tetrahydro-2′H,6H-spiro[1,4-oxazino[4,3-a][1,2]oxazolo[4,5-g]quinoline-5,5′-pyrimidine]-2′,4′,6′(1′H,3′H)-trione], which IC50 is on record?
Answer: Its IC50 is 0.8 µM.
